Measured values as given in article PMC5400543, “Design, sythesis and evaluation of a series of 3- or 4-alkoxy substituted phenoxy derivatives as PPARs agonists” (Oncotarget, 2017).

How the values were obtained:
[1] = target: T1, PPARγ (Homo sapiens, UniProt P37231); assay: In vitro PPARγ transactivation assay (Gal4-hPPARγLBD luciferase reporter in 293E cells); settings: 10^−5 M, 24 h, Csamples/Ccontrol, mean±SEM
T1 sequence (P37231 238-503 limits assumed): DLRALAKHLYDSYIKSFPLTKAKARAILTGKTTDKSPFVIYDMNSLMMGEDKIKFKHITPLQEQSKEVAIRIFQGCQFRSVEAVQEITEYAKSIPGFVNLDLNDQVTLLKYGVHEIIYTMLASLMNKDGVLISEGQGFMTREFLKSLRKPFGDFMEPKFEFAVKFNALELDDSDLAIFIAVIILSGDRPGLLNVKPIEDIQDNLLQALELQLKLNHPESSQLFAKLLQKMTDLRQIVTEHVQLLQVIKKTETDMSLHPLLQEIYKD

[2] = target: T2, PPARδ (Homo sapiens, UniProt Q03181); assay: In vitro PPARδ transactivation assay (Gal4-hPPARδLBD luciferase reporter in 293E cells); settings: 10^−5 M, 24 h, Csamples/Ccontrol, mean±SEM
T2 sequence (Q03181 211-439 limits assumed): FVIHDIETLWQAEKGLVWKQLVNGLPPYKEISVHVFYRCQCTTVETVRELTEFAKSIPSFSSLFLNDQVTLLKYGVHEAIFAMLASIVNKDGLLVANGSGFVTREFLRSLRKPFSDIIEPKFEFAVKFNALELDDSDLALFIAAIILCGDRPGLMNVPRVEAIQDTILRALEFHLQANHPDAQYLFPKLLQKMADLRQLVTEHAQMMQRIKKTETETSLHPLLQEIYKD

[3] = target: T3, PPARα (Homo sapiens, UniProt Q07869); assay: In vitro PPARα transactivation assay (Gal4-hPPARαLBD luciferase reporter in 293E cells); type: cell-based; settings: 24 h; for PPARα Activation Fold: 10^−5 M, Csamples/Ccontrol, mean±SEM
T3 construct: pcDNA3.1-hPPARαLBD-Gal4DB; expressed in transfected cells; host or cells: 293E cells
T3 sequence (Q07869 239-466 limits assumed): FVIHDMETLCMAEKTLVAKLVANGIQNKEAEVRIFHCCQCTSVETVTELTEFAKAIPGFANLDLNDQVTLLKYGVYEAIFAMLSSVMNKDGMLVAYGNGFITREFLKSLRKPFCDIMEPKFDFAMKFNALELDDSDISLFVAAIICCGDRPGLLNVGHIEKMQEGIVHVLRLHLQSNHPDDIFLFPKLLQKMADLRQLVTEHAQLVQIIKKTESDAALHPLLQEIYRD

SMILES	PPARγ Activation Fold [1]	PPARδ Activation Fold [2]	PPARα Activation Fold [3]	EC50 ([3]; multiple concentrations) [µM]	Cmax ([3]; multiple concentrations, read-out: Cmax, concentration at maximum efficiency percentage (Max%), PPARα) [µM]
CC(C)(Oc1ccc(OCCn2ccc3ccccc32)cc1)C(=O)O [6a, 2-(4-(2-(1H-indol-1-yl)ethoxy)phenoxy)-2-methylpropanoic acid]	1.21±0.09	0.97±0.09	1.00±0.07	–	–
CC(C)(Oc1ccc(OCCn2c3ccccc3c3ccccc32)cc1)C(=O)O [6b, 2-(4-(2-(9H-carbazol-9-yl)ethoxy)phenoxy)-2-methylpropanoic acid]	1.19±0.00	1.23±0.07	0.80±0.00	–	–
CC(C)(Oc1ccc(OCCCn2ccc3ccccc32)cc1)C(=O)O [6c, 2-(4-(3-(1H-indol-1-yl)propoxy)phenoxy)-2-methylpropanoic acid]	1.40±0.18	0.94±0.02	1.78±0.10	–	–
CC(C)(Oc1ccc(OCCCn2c3ccccc3c3ccccc32)cc1)C(=O)O [6d, 2-(4-(3-(9H-carbazol-9-yl)propoxy)phenoxy)-2-methylpropanoic acid]	1.57±0.00	1.13±0.03	1.96±0.17	–	–
CC(C)(Oc1cccc(OCC(=O)c2ccccc2)c1)C(=O)O [6f, 2-Methyl-2-(3-(2-oxo-2-phenylethoxy)phenoxy)propanoic acid]	1.22±0.01	1.27±0.09	1.58±0.09	–	–
CC(C)(Oc1cccc(OCCCn2ccc3ccccc32)c1)C(=O)O [6h, 2-(3-(3-(1H-indol-1-yl)propoxy)phenoxy)-2-methylpropanoic acid]	1.57±0.25	0.78±0.15	3.81±0.83	5.3	10
CC(C)(Oc1cccc(OCCCn2c3ccccc3c3ccccc32)c1)C(=O)O [6i, 2-(3-(3-(9H-carbazol-9-yl)propoxy)phenoxy)-2-methylpropanoic acid]	2.87±0.33	0.88±0.13	1.32±0.22	–	–
CC(C)(Oc1cccc(OCCCn2cnc3ccccc32)c1)C(=O)O [6j, 2-(3-(3-(1H-benzo[d]imidazol-1-yl)propoxy)phenoxy)-2-methylpropanoic acid]	1.17±0.00	0.86±0.03	0.97±0.15	–	–
CC(C)(Oc1cccc(OCCCc2ccccc2)c1)C(=O)O [6k, 2-Methyl-2-(3-(3-phenylpropoxy)phenoxy)propanoic acid]	1.62±0.11	0.99±0.22	1.50±0.08	–	–
CC(C)(Oc1ccc(OCCCc2ccccc2)cc1)C(=O)O [6m, 2-Methyl-2-(4-(3-phenylpropoxy)phenoxy)propanoic acid]	2.26±0.18	1.73±0.03	2.01±0.22	–	–
CC(C)(Oc1ccc(OCC(=O)c2ccccc2)cc1)C(=O)O [6n, 2-Methyl-2-(4-(2-oxo-2-phenylethoxy)phenoxy)propanoic acid]	1.31±0.12	1.24±0.06	1.16±0.02	–	–
CC(C)(Oc1cccc(OCCn2ccc3ccccc32)c1)C(=O)O [6o, 2-(3-(2-(1H-indol-1-yl)ethoxy)phenoxy)-2-methylpropanoic acid]	3.01±0.16	1.00±0.24	1.01±0.11	–	–
c1ccc2c(c1)ccn2CCOc1ccc(OCc2nn[nH]n2)cc1 [10a, 1-(2-(4-((2H-tetrazol-5-yl)methoxy)phenoxy)ethyl)-1H-indole]	1.30±0.06	1.28±0.06	0.76±0.04	–	–
c1ccc2c(c1)c1ccccc1n2CCOc1ccc(OCc2nn[nH]n2)cc1 [10b, 9-(2-(4-((2H-tetrazol-5-yl)methoxy)phenoxy)ethyl)-9H-carbazole]	1.26±0.22	1.39±0.21	0.55±0.03	–	–
c1ccc2c(c1)ccn2CCCOc1ccc(OCc2nn[nH]n2)cc1 [10c, 1-(3-(4-((2H-tetrazol-5-yl)methoxy)phenoxy)propyl)-1H-indole]	0.96±0.01	1.01±0.08	0.67±0.02	–	–
c1ccc2c(c1)c1ccccc1n2CCCOc1ccc(OCc2nn[nH]n2)cc1 [10d, 9-(3-(4-((2H-tetrazol-5-yl)methoxy)phenoxy)propyl)-9H-carbazole]	0.96±0.02	1.15±0.22	0.50±0.04	–	–
c1ccc(CCCOc2ccc(OCc3nn[nH]n3)cc2)cc1 [10e, 5-((4-(3-Phenylpropoxy)phenoxy)methyl)-2H-tetrazole]	1.93±0.23	1.26±0.15	1.91±0.13	–	–
c1cncc(COc2ccc(OCc3nn[nH]n3)cc2)c1 [10f, 3-((4-((2H-tetrazol-5-yl)methoxy)phenoxy)methyl)pyridine]	1.24±0.07	1.02±0.09	0.80±0.02	–	–
c1cc(OCCn2ccc3ccccc32)cc(OCc2nn[nH]n2)c1 [10g, 1-(2-(3-((2H-tetrazol-5-yl)methoxy)phenoxy)ethyl)-1H-indole]	2.83±0.49	0.83±0.04	0.90±0.05	–	–
c1cc(OCCCn2ccc3ccccc32)cc(OCc2nn[nH]n2)c1 [10i, 1-(3-(3-((2H-tetrazol-5-yl)methoxy)phenoxy)propyl)-1H-indole]	1.19±0.09	0.77±0.01	0.89±0.19	–	–
c1cc(OCCCn2c3ccccc3c3ccccc32)cc(OCc2nn[nH]n2)c1 [10j, 9-(3-(3-((2H-tetrazol-5-yl)methoxy)phenoxy)propyl)-9H-carbazole]	0.69±0.01	0.88±0.09	0.65±0.00	–	–
c1ccc(CCCOc2cccc(OCc3nn[nH]n3)c2)cc1 [10k, 5-((3-(3-Phenylpropoxy)phenoxy)methyl)-2H-tetrazole]	1.46±0.20	1.24±0.17	0.74±0.09	–	–
